Data reported in patent US9901573B2, “Compositions, methods, and kits for regulating energy metabolism” (NuSirt Sciences, Inc., priority 2012, dated 2018).
Marks after values point to notes of the source that are not given here.

How the values were obtained:
C2C12 myotubes [1] = test: Glucose utilization (extracellular acidification) in myotubes; assay type: cell-based; settings: FIG. 9
Method: (§1) Cell Culture: C2C12 and 3T3-L1 preadipocytes (American Type Culture Collection) were plated at a density of 8000 cells/cm^2 (10 cm^2 dish) and grown in Dulbecco's modified eagle's medium (DMEM) containing 10% fetal bovine serum (FBS), and antibiotics (growth medium) at 37° C. in 5% CO2. Confluent 3T3-L1 preadipocytes were induced to differentiate with a standard differentiation medium consisting of DMEM medium supplemented with 10% FBS, 250 nM dexamethasone, 0.5 mM 3-Isobutyl-1-methylxanthine (IBMX) and 1% penicillin-streptomycin. Preadipocytes were maintained in this differentiation medium for 3 days and subsequently cultured in growth medium. Cultures were re-fed every 2-3 days to allow >90% cells to reach fully differentiation before conducting chemical treatment. […]
(§2) Glucose Utilization: In the absence of a fatty acid source and oxidative metabolism, glycolysis and subsequent lactate production results in extracellular acidification, which was also measured using a Seahorse Bioscience XF24 analyzer. […] Data for each sample were normalized to the pre-glucose injection baseline for that sample and expressed as % change from that baseline. The area under of the curve of extracellular acidification change from baseline for each sample was the calculated and used for subsequent analysis.

Phospho-AMPKα (Thr172) = Phospho-AMPKα (Thr172) Western blot in myotubes; assay type: cell-based; settings: C2C12 myotubes, FIG. 11
Method: (§3) Cell Culture: C2C12 and 3T3-L1 preadipocytes (American Type Culture Collection) were plated at a density of 8000 cells/cm^2 (10 cm^2 dish) and grown in Dulbecco's modified eagle's medium (DMEM) containing 10% fetal bovine serum (FBS), and antibiotics (growth medium) at 37° C. in 5% CO2. Confluent 3T3-L1 preadipocytes were induced to differentiate with a standard differentiation medium consisting of DMEM medium supplemented with 10% FBS, 250 nM dexamethasone, 0.5 mM 3-Isobutyl-1-methylxanthine (IBMX) and 1% penicillin-streptomycin. Preadipocytes were maintained in this differentiation medium for 3 days and subsequently cultured in growth medium. Cultures were re-fed every 2-3 days to allow >90% cells to reach fully differentiation before conducting chemical treatment. For differentiation of C2C12 cells, cells were grown to 100% confluence, transferred to differentiation medium (DMEM with 2% horse serum and 1% penicillin-streptomycin), and fed with fresh differentiation medium every day until myotubes were fully formed (3 days).
(§4) Western blot: The Phospho-AMPKα (Thr172)- and Sirt1 (mouse specific)-antibody was obtained from Cell Signaling (Danvers, Mass.). C2C12 myotubes were treated as indicated in results and the cellular fractions were prepared using standard methods. Protein was measured by BCA kit (Thermo Scientific). […] Visualization and chemiluminescent detection was conducted using BioRad ChemiDoc instrumentation and software (Bio-Rad Laboratories, Hercules, Calif.) and band intensity was assessed using Image Lab 4.0 (Bio-Rad Laboratories, Hercules, Calif.), with correction for background and loading controls. P-AMPK was detected at 61-66 kDA and Sirt1 was detected at 104-115 kDA.

C2C12 myotubes [2] = test: Fatty acid oxidation (O2 consumption response to palmitate) in myotubes; assay type: cell-based; settings: vs control
Method: Cell Culture: C2C12 and 3T3-L1 preadipocytes (American Type Culture Collection) were plated at a density of 8000 cells/cm^2 (10 cm^2 dish) and grown in Dulbecco's modified eagle's medium (DMEM) containing 10% fetal bovine serum (FBS), and antibiotics (growth medium) at 37° C. in 5% CO2. Confluent 3T3-L1 preadipocytes were induced to differentiate with a standard differentiation medium consisting of DMEM medium supplemented with 10% FBS, 250 nM dexamethasone, 0.5 mM 3-Isobutyl-1-methylxanthine (IBMX) and 1% penicillin-streptomycin. Preadipocytes were maintained in this differentiation medium for 3 days and subsequently cultured in growth medium. Cultures were re-fed every 2-3 days to allow >90% cells to reach fully differentiation before conducting chemical treatment. For differentiation of C2C12 cells, cells were grown to 100% confluence, transferred to differentiation medium (DMEM with 2% horse serum and 1% penicillin-streptomycin), and fed with fresh differentiation medium every day until myotubes were fully formed (3 days). Fatty acid oxidation: Cellular oxygen consumption was measured using a Seahorse Bioscience XF24 analyzer (Seahorse Bioscience, Billerica, Mass.) in 24-well plates at 37° C., as described by Feige et al (1) with slight modifications. Cells were seeded at 40,000 cells per well, differentiated as described above, treated for 24 hours with the indicated treatments, washed twice with non-buffered carbonate-free pH 7.4 low glucose (2.5 mM) DMEM containing carnitine (0.5 mM), equilibrated with 550 μL of the same media in a non-CO2 incubator for 45 minutes, and then inserted into the instrument for 15 minutes of further equilibration, followed by O2 consumption measurement. Three successive baseline measurements at five-minute intervals were taken prior to injection of palmitate (200 μM final concentration). Four successive 5-minute measurements of O2 consumption were then conducted, followed by 10 minute re-equilibration and another 3-4 5-minute measurements. This measurement pattern was then repeated over a 4-6 hour period. Data for each sample were normalized to the pre-palmitate injection baseline for that sample and expressed as % change from that baseline. […] The area under of the curve of O2 consumption change from baseline for each sample was then calculated and used for subsequent analysis.

3T3-L1 adipocytes [3] = test: Intracellular Ca2+ by fura-2 imaging in adipocytes; assay type: cell-based
Method: Cell culture: 3T3-L1 pre-adipocytes were incubated at a density of 8000 cells/cm^2 (10 cm^2 dish) and grown in the absence of insulin in Dulbecco's modified Eagle's medium (DMEM) containing 10% FBS and antibiotics (1% penicillin-streptomycin)(adipocyte medium) at 37° C. in 5% CO2 in air. Confluent pre-adipocytes were induced to differentiate with a standard differentiation medium consisting of DMEM-F10 (1:1, vol/vol) medium supplemented with 1% fetal bovine serum (FBS), 250 nM dexamethasone (DEXA), isobutylmethylxanthine (IBMX) (0.5 mM) and antibiotics. Pre-adipocytes were maintained in this differentiation medium for 3 days (unless specifically indicated) and subsequently cultured in adipocyte medium. Cultures were re-fed every 2-3 days to allow 90% cells to reach fully differentiation before treatment.
Intracellular Ca^2+ ([Ca^2+]i): [Ca^2+]i was measured using a fura-2 dual wavelength fluorescence imaging system. Adipocytes were plated and differentiated in 35 mm dishes with glass coverslips (P35G-0-14-C, MatTek Corporation). Prior to [Ca^2+]i measurement, cells were preincubated in serum-free medium overnight and rinsed with Hepes Balanced Salt Solution (HBSS) containing the following components (in mM): NaCl 138, CaCl2 1.8, MgSO4 0.8, NaH2PO4 0.9, NaHCO3 4, glucose 5, glutamine 6, Hepes 20, and bovine serum albumin 1%. Cells were loaded with fura-2 acetoxymethyl ester (AM) (10 μM) in the same buffer for 2 hr at 37° C. in a dark incubator with 5% CO2. To remove extracellular dye, cells were rinsed with HBSS 3 times and then postincubated at room temperature for an additional 1 hr for complete hydrolysis of cytoplasmic fura-2 AM. The dishes with dye-loaded cells were mounted on the stage of Nikon TMS-F fluorescence inverted microscope with a Cohu 4915 CCD camera. Fluorescent images were captured alternatively at excitation wavelength of […] with an emission wavelength of 520 nm. [Ca^2]i was calculated using a standard ratio equation. Each analysis evaluated responses of 8-10 representative whole cells. Images were analyzed with InCytIm2 version 4.62 imaging software (Intracellular Imaging, Cincinnati, Ohio). Images were calibrated using a fura-2 calcium imaging calibration kit (Molecular Probes, Eugene, Oreg.) to create a calibration curve in solution, and cellular calibration was accomplished using digitonin (25 μM) and pH 8.7 Tris-EGTA (100 mM) to measure maximal and minimal [Ca^2+]i levels.

Sirt1 = Sirt1 protein expression Western blot in myotubes; assay type: cell-based, mouse; settings: C2C12 myotubes, FIG. 12
Method: as §1
as §4, with “C2C12 myotubes were treated as indicated in results and the cellular fractions were prepared using standard methods.” left out

3T3-L1 adipocytes [4] = test: Glucose utilization (extracellular acidification) in adipocytes; assay type: cell-based; settings: FIG. 10
Method: as §1, §2

C2C12 myotubes [5] = test: Mitochondrial biogenesis (mitochondrial mass, NAO probe); assay type: cell-based; settings: FIG. 13
Method: as §3, with “days). Mitochondrial biogenesis: Mitochondrial biogenesis was assessed as change in mitochondrial mass, as previously described (2). The mitochondrial probe NAO (Invitrogen, Carlsbad, Calif.) was used to analyze mitochondrial mass by fluorescence (excitation 485 nm and emission 520 nm) and quantitative data was obtained with a fluorescence microplate reader (Synergy HT, BioTek Instruments, Winooski, Vt.). The intensity of fluorescence was expressed as arbitrary units per μg protein and normalized to control values within each assay.” for “days).”

3T3-L1 adipocytes [6] = test: Fatty acid oxidation (O2 consumption response to palmitate) in adipocytes; assay type: cell-based; settings: FIG. 8, % change from control
Method: as §1
Fatty acid oxidation: Cellular oxygen consumption was measured using a Seahorse Bioscience XF24 analyzer (Seahorse Bioscience, Billerica, Mass.) in 24-well plates at 37° C., as described by Feige et al (1) with slight modifications. […] Data for each sample were normalized to the pre-palmitate injection baseline for that sample and expressed as % change from that baseline. […] The area under of the curve of O2 consumption change from baseline for each sample was then calculated and used for subsequent analysis.

[7] = FIG. 4/5, 24 hours, leucine, valine, isoleucine 0.5 mM, B6 100 nM as pyridoxal phosphate

| SMILES | increase in glucose utilization (C2C12 myotubes [1]) | AMPK activation (Phosphorylated AMPK Thr172), increase (Phospho-AMPKα (Thr172)) | increase in fatty acid oxidation (C2C12 myotubes [2]; [7]) | Intracellular Ca2+ (3T3-L1 adipocytes [3]; PLP 50 nM) | Intracellular Ca2+ (3T3-L1 adipocytes [3]; PLP 100 nM) | Sirt1 protein levels, increase (Sirt1) | increase in glucose utilization (3T3-L1 adipocytes [4]) | increase in mitochondrial biogenesis (mitochondrial biomass) (C2C12 myotubes [5]) | increase in fatty acid oxidation (3T3-L1 adipocytes [6]) | increase in fatty acid oxidation (C2C12 myotubes [2]; FIG. 6/7, metformin 100 μM) |
| --- | --- | --- | --- | --- | --- | --- | --- | --- | --- | --- |
| Cc1ncc(COP(=O)(O)O)c(C=O)c1O [PLP, pyridoxal phosphate] | no independent effect | Neither treatment with leucine, valine, nor B6 alone exerted any significant effect | no significant independent effect | 133.2^c ± nM | 96.3^b ± nM | unaffected | no independent effect |  |  |  |
| CC[C@H](C)[C@H](N)C(=O)O [isoleucine] |  |  | small change in fatty acid oxidation when compared to control |  |  |  |  | no significant effect | small change from baseline |  |
| CN(C)C(=N)N=C(N)N [metformin] |  |  |  |  |  |  |  | effect similar to leucine |  | comparable effect |
| CC(C)[C@H](N)C(=O)O [valine] |  | Neither treatment with leucine, valine, nor B6 alone exerted any significant effect | small change in fatty acid oxidation when compared to control |  |  |  |  | no significant effect |  |  |
